This test deals with T1, Human TREM2 (Homo sapiens, UniProt Q9NZC2).
T1 construct: expressed in transfected cells
Briefly: Human TREM2 cellular phospho-Syk AlphaLISA assay in HEK293/DAP12+TREM2 stable cell line. Format: cell-based. The following applies: HEK293/DAP12+TREM2 cells; for Emax: maximal response relative to the maximal response of the reference agonist, phospho-Syk AlphaLISA; for EC50: phospho-Syk (Tyr525/526) AlphaLISA signal, 30 min incubation. The source says: Human TREM2, in vitro Measurement of Triggering Receptor Expressed on Myeloid Cells 2 activity using cellular phosphorylation of Spleen Tyrosine Kinase (“Syk”) Assay
HEK-293 cells were co-transfected with separate plasmids encoding TREM2 and DAP12 to generate a stable cell line. After antibiotic selection, functional clone pool analysis and two successive limiting dilutions, the final clone “HEK293/DAP12+TREM2” underwent a qPCR analysis and a pharmacological validation.
TREM2 signaling through DAP12 was monitored in the HEK293/DAP12+TREM2 stable cell line by measuring the phosphorylation levels of the Syk kinase using the commercially available AlphaLISA SureFire Ultra p-SYK (Tyr525/526) Assay Kit (PerkinElmer #ALSU-PSYK), based on the Perkin Elmer AlphaScreen/AlphaLISA technology.
Compounds are transferred to the test plate and tested in full dose response, 8 concentrations in quadruplicate data points. Compound serial dilutions were performed at Cybi-Felix instrument in 100% DMSO and the dose response curves were assembled in automated fashion in 384MPT at Hamilton STARlet instrument. All the stock solutions were prepared at 20 mM in 100% DMSO. For compounds testing, the starting concentration was 100 μM, dilution steps 1:6. A different concentration's range was adapted for compound's activity based on the preliminary results. Finally, a 384MPT reformatted for all compounds at 8 concentrations, quadruplicates, was used as “mother to child” process with a CyBi@-Well dispenser in which 1 μL of each compound was moved into a destination plate pre-filled with […] of EMEM cell culture medium (BIOWHITTAKER_cat.BE12-125F), thus obtaining 3× concentrated compounds working solution. In columns 1-2 and 23-24 the control wells were added. In particular, dose response curves of a reference control agonist were included in column 1 and 24 as reference control agonist (Reference control agonists used include Human TREM2 polyclonal Antibody AF1828: R&D Systems; Human TREM2 monoclonal Antibody MAB1828: R&D Systems). The dose response curves were tested starting at 30 μM, dilution step 1:6. Both “source” compound plate and “destination” compound plate were barcoded and a relationship between the two plates was thus generated.
HEK293/DAP12+TREM2 cells were cultured in EMEM medium supplemented with IX Penicillin/Streptomycin (BIOWHITTAKER_cat.DE17-602E), ULTRAGLUTAMINE I 200 mM, 10% Fetal Bovine Serum plus antibiotics referred to as “HEK293 Culture Medium”. The day before the experiment, cells were detached by gentle wash with DPBS, followed by 5 min incubation at 37° C. with Trypsin solution. Cells were then diluted in HEK293 Culture Medium without antibiotics, counted and seeded into 384-well poly-D-Lysine coated microplates black/clear bottom (GREINER 781946) at a density of 10,000 cells/well in 25 μL/well by the use of a MATRIX WellMate dispenser. Plates were placed into a humidified cell culture incubator at 37° C. with 5% CO2 until the experimental day. 20-24 hours after seeding mature medium was removed and replaced with 10 μL/well of EMEM cell medium supplemented with 0.1% Pluronic F-68 non-ionic surfactant (Thermofisher, 24040032), referred to as “Assay Buffer”, using the CyBi@-Well instrument. Then 5 μL/well of Assay Buffer containing 3× concentrated test compounds or the reference control agonist (in 0.5% final DMSO concentration) were added to the cells with the CyBi@-Well instrument. Cell plates were incubated for 30 min into a humidified cell culture incubator at 37° C. with 5% CO2, then the medium was removed by manually discard. 20 μL/well of lysis buffer were dispensed using the CyBi@-Well instrument and plates were incubated for 10 min at room temperature on a plate shaker (350 rpm). Then, 10 μL/well of lysate were transferred to the Alpha plates.
The CyBi@-Well instrument was used to dispense 5 μL/well of AlphaLISA Acceptor Bead Solution in IX Immunoassay buffer (Perkin Elmer AL000F). […]

T1 sequence (Q9NZC2 19-230): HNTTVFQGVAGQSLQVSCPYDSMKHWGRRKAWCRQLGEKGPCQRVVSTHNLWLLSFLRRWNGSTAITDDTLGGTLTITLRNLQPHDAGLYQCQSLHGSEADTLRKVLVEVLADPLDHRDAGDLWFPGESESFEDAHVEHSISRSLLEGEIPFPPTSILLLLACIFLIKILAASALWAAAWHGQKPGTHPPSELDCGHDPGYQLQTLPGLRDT
T1 sequence (O43914 22-113 partner): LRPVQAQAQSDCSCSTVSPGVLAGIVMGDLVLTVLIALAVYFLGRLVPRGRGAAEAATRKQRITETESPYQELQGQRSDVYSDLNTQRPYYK

As for `CC(C)n1cc(OC2CN(c3nc(-c4ccc(C#N)cc4F)c4nc(C(F)(F)F)n(C)c(=O)c4n3)C2)cn1` [Example 11, 3-fluoro-4-(2-(3-((1-isopropyl-1H-pyrazol-4-yl)oxy)azetidin-1-yl)-7-methyl-8-oxo-6-(trifluoromethyl)-7,8-dihydropyrimido[5,4-d]pyrimidin-4-yl)benzonitrile], the maximum response (Emax) was in the range of 75 to 110% and the EC50 lay in the range of 0.01 to 0.1 µM.
For `COc1ccc(-c2nc(N3CC(Oc4cnn(C5CC5)c4)C3)nc3c(=O)n(C)c(C(F)(F)F)nc23)cn1` [Example 37, 6-(3-((1-cyclopropyl-1H-pyrazol-4-yl)oxy)azetidin-1-yl)-8-(6-methoxypyridin-3-yl)-3-methyl-2-(trifluoromethyl)pyrimido[5,4-d]pyrimidin-4(3H)-one] the same measures were 75 to 110% and 0.1 to 1 µM.
For `Cn1c(C(F)(F)F)nc2c(-c3ccc(C#N)cc3F)nc(N3CC(Oc4cnn(C5CCC5)c4)C3)nc2c1=O` [Example 16, 4-(2-(3-((1-cyclobutyl-1H-pyrazol-4-yl)oxy)azetidin-1-yl)-7-methyl-8-oxo-6-(trifluoromethyl)-7,8-dihydropyrimido[5,4-d]pyrimidin-4-yl)-3-fluorobenzonitrile] the same measures were 75 to 110% and 0.01 to 0.1 µM.
For `Cc1cc(OC2CN(c3nc(-c4ccc(F)cc4F)c4nc(C(F)(F)F)n(C)c(=O)c4n3)C2)ccn1` [Example 30, 8-(2,4-difluorophenyl)-3-methyl-6-(3-((2-methylpyridin-4-yl)oxy)azetidin-1-yl)-2-(trifluoromethyl)pyrimido[5,4-d]pyrimidin-4(3H)-one] the same measures were 75 to 110% and 0.01 to 0.1 µM.
In the case of `Cn1ncc(OC2CN(c3nc(-c4ccc(C#N)cc4F)c4nc(C(F)(F)F)n(C)c(=O)c4n3)C2)c1Cl` [Example 13, 4-(2-(3-((5-chloro-1-methyl-1H-pyrazol-4-yl)oxy)azetidin-1-yl)-7-methyl-8-oxo-6-(trifluoromethyl)-7,8-dihydropyrimido[5,4-d]pyrimidin-4-yl)-3-fluorobenzonitrile], the Emax was 75 to 110% and the concentration for a half-maximal effect (EC50) was in the range of 0.1 to 1 µM.
Compound `Cc1c(OC2CN(c3nc(-c4ccc(C#N)cc4F)c4nc(C(F)(F)F)n(C)c(=O)c4n3)C2)cnn1C` [Example 8, 4-(2-(3-((1,5-dimethyl-1H-pyrazol-4-yl)oxy)azetidin-1-yl)-7-methyl-8-oxo-6-(trifluoromethyl)-7,8-dihydropyrimido[5,4-d]pyrimidin-4-yl)-3-fluorobenzonitrile] showed an Emax of less than 75% and an EC50 of 0.1 to 1 µM.
For `Cn1c(C(F)(F)F)nc2c(-c3ccc(F)cc3F)nc(N3CC(Oc4cnn(C5CC5)c4)C3)cc2c1=O` [Example 40, 6-(3-((1-cyclopropyl-1H-pyrazol-4-yl)oxy)azetidin-1-yl)-8-(2,4-difluorophenyl)-3-methyl-2-(trifluoromethyl)pyrido[3,4-d]pyrimidin-4(3H)-one] the same measures were less than 75% and 0.1 to 1 µM.
For `Cn1c(C(F)(F)F)nc2c(-c3ccc(C#N)cc3)nc(N3CC(Oc4cnn(C5CC5)c4)C3)nc2c1=O` [Example 35, 4-(2-(3-((1-cyclopropyl-1H-pyrazol-4-yl)oxy)azetidin-1-yl)-7-methyl-8-oxo-6-(trifluoromethyl)-7,8-dihydropyrimido[5,4-d]pyrimidin-4-yl)benzonitrile] the same measures were 75 to 110% and 0.01 to 0.1 µM.
As to `Cn1c(C(F)(F)F)nc2c(-c3ccc(C#N)cc3F)nc(N3CC(Oc4cnn(CC5CC5)c4)C3)nc2c1=O` [Example 15, 4-(2-(3-((1-(cyclopropylmethyl)-1H-pyrazol-4-yl)oxy)azetidin-1-yl)-7-methyl-8-oxo-6-(trifluoromethyl)-7,8-dihydropyrimido[5,4-d]pyrimidin-4-yl)-3-fluorobenzonitrile], the maximum response (Emax) is greater than 110% and the EC50 fell in the range of 0.01 to 0.1 µM.

The values are drawn from patent US12459952B2, “TREM2 modulators” (Muna Therapeutics ApS, priority 2024, dated 2025).
